Experimental findings from ChEMBL document CHEMBL1152560, “Substituted 2-arylbenzothiazoles as kinase inhibitors: hit-to-lead optimization” (Bioorg Med Chem, 2009) are described below.

Experiment [1] addresses Protein kinase C gamma type (Homo sapiens) (UniProt P05129). Nature of the experiment: Residual activity of PKCgamma at 1 uM by microplate scintillation counting.
The target of experiment [2] is T1, Serine/threonine-protein kinase Nek11 (Homo sapiens) (UniProt Q8NG66).
T1 sequence (whole entry): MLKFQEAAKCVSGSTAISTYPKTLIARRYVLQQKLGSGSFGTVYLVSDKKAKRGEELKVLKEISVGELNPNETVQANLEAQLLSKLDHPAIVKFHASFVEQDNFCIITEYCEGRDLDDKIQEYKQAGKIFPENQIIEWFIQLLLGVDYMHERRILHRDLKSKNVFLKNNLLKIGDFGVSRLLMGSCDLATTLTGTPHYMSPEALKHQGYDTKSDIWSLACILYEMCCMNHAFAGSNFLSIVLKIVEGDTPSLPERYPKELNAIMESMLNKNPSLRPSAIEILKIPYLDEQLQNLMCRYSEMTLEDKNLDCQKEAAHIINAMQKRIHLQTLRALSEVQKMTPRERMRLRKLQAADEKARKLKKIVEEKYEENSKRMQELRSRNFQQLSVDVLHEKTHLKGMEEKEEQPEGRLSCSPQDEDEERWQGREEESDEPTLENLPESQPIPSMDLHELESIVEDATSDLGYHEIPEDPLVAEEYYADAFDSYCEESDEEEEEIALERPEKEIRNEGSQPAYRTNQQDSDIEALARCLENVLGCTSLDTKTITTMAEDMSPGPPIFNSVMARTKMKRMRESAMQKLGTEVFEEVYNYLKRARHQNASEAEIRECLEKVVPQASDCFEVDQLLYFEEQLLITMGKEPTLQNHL
Nature of the experiment: Residual activity of NEK11 at 1 uM by microplate scintillation counting.

The target in experiment [3] is T2, Phosphorylase b kinase gamma catalytic chain, liver/testis isoform (Homo sapiens) (UniProt P15735).
T2 sequence (whole entry): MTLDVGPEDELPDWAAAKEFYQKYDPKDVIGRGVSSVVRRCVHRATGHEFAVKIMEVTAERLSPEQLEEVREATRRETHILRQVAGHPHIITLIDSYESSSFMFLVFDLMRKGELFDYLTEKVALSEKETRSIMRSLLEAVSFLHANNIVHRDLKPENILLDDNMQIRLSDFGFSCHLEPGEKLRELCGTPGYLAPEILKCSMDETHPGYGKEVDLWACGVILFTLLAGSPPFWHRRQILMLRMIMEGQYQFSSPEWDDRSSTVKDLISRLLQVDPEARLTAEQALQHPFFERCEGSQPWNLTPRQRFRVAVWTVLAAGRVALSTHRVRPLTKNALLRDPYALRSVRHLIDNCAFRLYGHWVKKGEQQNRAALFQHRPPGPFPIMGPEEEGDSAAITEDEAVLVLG
Nature of the experiment: Residual activity of PHKG2 at 10 uM by microplate scintillation counting.

The target of experiment [4] is T3, NUAK family SNF1-like kinase 1 (Homo sapiens) (UniProt O60285).
T3 sequence (whole entry): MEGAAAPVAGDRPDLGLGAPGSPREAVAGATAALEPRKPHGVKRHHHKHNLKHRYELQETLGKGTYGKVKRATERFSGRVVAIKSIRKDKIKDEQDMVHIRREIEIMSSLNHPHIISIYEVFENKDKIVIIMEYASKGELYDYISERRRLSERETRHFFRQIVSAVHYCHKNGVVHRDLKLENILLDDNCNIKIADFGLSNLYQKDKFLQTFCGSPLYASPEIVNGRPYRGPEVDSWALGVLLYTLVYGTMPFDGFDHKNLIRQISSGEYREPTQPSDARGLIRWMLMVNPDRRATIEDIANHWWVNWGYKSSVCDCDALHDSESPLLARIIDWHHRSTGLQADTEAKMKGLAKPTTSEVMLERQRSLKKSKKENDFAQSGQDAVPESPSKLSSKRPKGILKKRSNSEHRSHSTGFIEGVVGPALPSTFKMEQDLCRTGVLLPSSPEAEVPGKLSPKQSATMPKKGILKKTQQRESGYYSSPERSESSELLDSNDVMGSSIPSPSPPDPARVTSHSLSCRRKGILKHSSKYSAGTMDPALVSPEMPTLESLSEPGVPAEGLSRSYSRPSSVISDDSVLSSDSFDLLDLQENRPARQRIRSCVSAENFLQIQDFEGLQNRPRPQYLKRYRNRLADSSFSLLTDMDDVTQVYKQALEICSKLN
Nature of the experiment: Residual activity of ARK5 at 0.1 uM by microplate scintillation counting.

Experiment [5] concerns the target T4, Serine/threonine-protein kinase Chk1 (Homo sapiens) (UniProt O14757).
T4 sequence (whole entry): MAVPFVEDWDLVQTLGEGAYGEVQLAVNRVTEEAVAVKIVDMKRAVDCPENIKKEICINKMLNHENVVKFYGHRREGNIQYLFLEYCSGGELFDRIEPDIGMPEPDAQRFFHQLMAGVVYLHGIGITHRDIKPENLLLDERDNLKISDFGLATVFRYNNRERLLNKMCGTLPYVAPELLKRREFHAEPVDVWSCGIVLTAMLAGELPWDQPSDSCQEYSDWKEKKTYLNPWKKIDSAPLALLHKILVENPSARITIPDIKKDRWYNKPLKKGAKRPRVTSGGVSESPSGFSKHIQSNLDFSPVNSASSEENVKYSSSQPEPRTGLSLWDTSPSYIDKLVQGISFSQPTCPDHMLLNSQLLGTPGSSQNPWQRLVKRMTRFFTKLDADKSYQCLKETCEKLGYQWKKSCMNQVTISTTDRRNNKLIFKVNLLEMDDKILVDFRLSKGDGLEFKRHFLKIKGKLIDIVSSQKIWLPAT
Nature of the experiment: Residual activity of CHK1 at 0.1 uM by microplate scintillation counting.

The target of experiment [6] is T5, NUAK family SNF1-like kinase 2 (Homo sapiens) (UniProt Q9H093).
T5 sequence (whole entry): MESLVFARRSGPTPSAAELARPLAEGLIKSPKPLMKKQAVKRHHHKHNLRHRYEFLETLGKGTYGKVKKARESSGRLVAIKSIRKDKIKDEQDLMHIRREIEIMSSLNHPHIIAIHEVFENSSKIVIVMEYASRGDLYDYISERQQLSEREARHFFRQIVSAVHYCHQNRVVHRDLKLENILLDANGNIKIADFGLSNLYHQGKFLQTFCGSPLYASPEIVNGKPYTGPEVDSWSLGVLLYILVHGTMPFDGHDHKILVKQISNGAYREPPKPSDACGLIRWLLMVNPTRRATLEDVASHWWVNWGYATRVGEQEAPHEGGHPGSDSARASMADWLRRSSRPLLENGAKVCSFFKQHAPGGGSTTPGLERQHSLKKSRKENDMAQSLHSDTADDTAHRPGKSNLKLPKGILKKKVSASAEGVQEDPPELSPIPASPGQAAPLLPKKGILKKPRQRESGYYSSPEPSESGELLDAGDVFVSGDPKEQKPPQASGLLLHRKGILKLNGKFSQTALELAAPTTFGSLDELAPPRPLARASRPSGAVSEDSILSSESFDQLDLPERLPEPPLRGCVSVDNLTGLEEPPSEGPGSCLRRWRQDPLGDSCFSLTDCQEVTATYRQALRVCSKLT
Nature of the experiment: Residual activity of SNARK at 10 uM by microplate scintillation counting.

Consider `COc1cc2c(Oc3ccc(-c4nc5ccccc5s4)cc3F)ncnc2cc1OCCCN1CCN(C)CC1`, for which the residual activity (as a rule, the signal under treatment as a percentage of the control signal) in experiment [1] was 117%; in experiment [2], 93%; in experiment [3], 88%; in experiment [4] it was 94%; in experiment [5] it was 106%; in experiment [6], 62%.

For `COc1cc2c(Oc3ccc(-c4nc5ccccc5s4)cc3)ncnc2cc1OCCCN1CCN(C)CC1`, the residual activity in experiment [1] stood at 117%; in experiment [2], 104%; in experiment [3], 103%; in experiment [4], 98%; in experiment [5], 99%; in experiment [6] it was 92%.

In the case of `COc1cc2c(Oc3ccc(-c4nc5ccccc5s4)cc3)ncnc2cc1OCCCN1CCCC1`, the residual activity was determined as 102% in experiment [1]; 91% in experiment [2]; 93% in experiment [3]; 83% in experiment [4]; 94% in experiment [5]; 82% in experiment [6].
